Assay results reported in US20180201899A1, “IPSC-EC PERFORMANCE ENHANCEMENT VIA SIRT1 OVEREXPRESSION” (Northwestern University, priority 2015, published 2018).

Test system: iPSC-ECs
Assay: Senescence associated β-galactosidase staining
Type: cell-based
Method: Nitric oxide (NO) production was assessed via 4,5-diaminofluorescein.diacetate (DAF 2-DA) assay (Life Technologies). Cell mitogenic effect in response to VEGF (100 ng/ml) was assessed via MTT assay (Sigma-Aldrich) after treating cells in serum-free (starvation) medium, or starvation medium containing 100 ng/ml VEGF for 24 hours. Cell proliferation was determined by counting cell number every seven days after lentiviral transduction using a hemocytometer by excluding dead cells with Trypan blue. […] All results were normalized to cell number via Alamar blue assay (Sigma-Aldrich).Cellular senescence assay kit (Cell Signaling Technology, Danvers, Mass.) was used to stain for senescence associated β-galactosidase (β-gal) in the presence or absence of Ex-527 (10 μM), a SIRT1 inhibitor, and the percentage of β-gal positive cells was quantified with ImageJ. […]
Cellular senescence assay kit (Cell Signaling Technology, Danvers, Mass.) was used to stain for β-galactosidase (β-gal) in the presence or absence of Ex-527 (10 μM), a SIRT1 inhibitor (18), and the percentage of β-gal positive cells was quantified with ImageJ. […] Cell proliferation was determined by counting cell number every seven days after lentiviral transduction using a hemocytometer by excluding dead cells with Trypan blue. […] NO production was assessed via 4,5-diaminofluorescein.diacetate (DAF 2-DA) assay (Life Technologies). […]

## NC(=O)C1CCCc2c1[nH]c1ccc(Cl)cc21 (centres unmarked) [Ex-527]
10 μM Ex-527, LV-empty transduced cells, passage 6
  β-gal+ (senescent) cells: 56.0±6.2%
10 μM Ex-527, all lentiviral groups
  effect on percentage of senescent cells: higher percentage of senescent cells in all groups
